Measured values published in patent publication US20230111310A1, “CARBOXYLIC ACID DERIVATIVE-SUBSTITUTED IMINO ARYL COMPOUND, PREPARATION METHOD THEREFOR, HERBICIDAL COMPOSITION AND USE THEREOF” (Qingdao Kingagroot Chemical Compound Co., Ltd., priority 2020, published 2023).

How the values were obtained:
Assay type in all cases: in vivo
Echinochloa crusgalli = assay: Weeding effect in post-emergence stage; details: Dose 15 g/ha; level of fresh weight growth control rate
In short: (§1)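 Pot-grown greenhouse plants sprayed at 2–3 leaf stage, 2 weeks after sowing, with compound in acetone/Tween 80 plus methyl oleate emulsifiable concentrate (1.5 liter/ha) at 500–7.5 g/ha. Growth control rated 3 weeks after treatment; mean of three replicates.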

Setaria viridis [1] = assay: Weeding effect in pre-emergence stage; details: 30 g/ha, 4 weeks
Protocol: (§2) The activity level criteria for plant damage (i.e., growth control rate) are as follows:
(§3) The aforementioned seeds of monocotyledonous and dicotyledonous weeds and main crops were put into a plastic pot loaded with soil and covered with 0.5-2 cm soil. The test compounds of the present invention was dissolved with acetone, then added with tween 80, diluted by a certain amount of water to reach a certain concentration, and sprayed immediately after sowing. The obtained seeds were incubated for 4 weeks in the greenhouse after spraying and the test results were observed. It was observed that the herbicide mostly had excellent effect at the application rate of 500, 250, 125, 60, 30, 15, 7.5 g/ha, especially to weeds such as Echinochloa crusgalli. Digitaria sanguinalis and Abutilon theophrasti, etc. And many compounds had good selectivity for corn, cotton, wheat, rice, soybean, and peanut etc. In addition, evaluate the weed control effect with the above activity standard level.

Descurainia sophia = assay: Weeding effect in pre-emergence stage; details: 30 g/ha, 4 weeks
Protocol: as §2, §3

Amaranthus retroflexus = assay: Weeding effect in pre-emergence stage; details: 30 g/ha, 4 weeks
Protocol: as §2, §3

Abutilon theophrasti [2] = assay: Weeding effect in pre-emergence stage; details: 30 g/ha, 4 weeks
Protocol: as §2, §3

Capsella bursa-pastoris = assay: Weeding effect in pre-emergence stage; details: 30 g/ha, 4 weeks
Protocol: as §2, §3

Veronica didyma Tenore = assay: Weeding effect in pre-emergence stage; details: 30 g/ha, 4 weeks
Protocol: as §2, §3

cotton = assay: Pre-emergence stage, crop selectivity; details: 30 g/ha, 4 weeks
Protocol: as §2, §3

Peanut = assay: Pre-emergence stage, crop selectivity; details: 30 g/ha, 4 weeks
Protocol: as §2, §3

Soybeans = assay: Pre-emergence stage, crop selectivity; details: 30 g/ha, 4 weeks
Protocol: as §2, §3

corn = assay: Pre-emergence stage, crop selectivity; details: 30 g/ha, 4 weeks
Protocol: as §2, §3

Setaria viridis [3] = assay: Weeding effect in post-emergence stage; details: Dose 15 g/ha; level of fresh weight growth control rate
In short: as §1

Eleusine indica = assay: Weeding effect in post-emergence stage; details: Dose 15 g/ha; level of fresh weight growth control rate
In short: as §1

Abutilon theophrasti [4] = assay: Weeding effect in post-emergence stage; details: Dose 15 g/ha; level of fresh weight growth control rate
In short: as §1

Alopecurus japonicus = assay: Weeding effect in post-emergence stage; details: Dose 15 g/ha; level of fresh weight growth control rate
In short: as §1

Digitaria sanguinalis = assay: Weeding effect in post-emergence stage; details: Dose 15 g/ha; level of fresh weight growth control rate
In short: as §1

| Compound | Weeding effect in post-emergence stage, Echinochloa crusgalli (Echinochloa crusgalli) | activity level (growth control rate) Setaria viridis (Setaria viridis [1]) | activity level (growth control rate) Descurainia sophia (Descurainia sophia) | activity level (growth control rate) Amaranthus retroflexus (Amaranthus retroflexus) | activity level (growth control rate) Abutilon theophrasti (Abutilon theophrasti [2]) | activity level (growth control rate) Capsella bursa-pastoris (Capsella bursa-pastoris) | activity level (growth control rate) Veronica didyma Tenore (Veronica didyma Tenore) | plant damage level Cotton (cotton) | plant damage level Peanut (Peanut) | plant damage level Soybeans (Soybeans) | plant damage level Corn (corn) | Weeding effect in post-emergence stage, Setaria viridis (Setaria viridis [3]) | Weeding effect in post-emergence stage, Eleusine indica (Eleusine indica) | Weeding effect in post-emergence stage, Abutilon theophrasti (Abutilon theophrasti [4]) | Weeding effect in post-emergence stage, Alopecurus japonicus (Alopecurus japonicus) | Weeding effect in post-emergence stage, Digitaria sanguinalis (Digitaria sanguinalis) |
| --- | --- | --- | --- | --- | --- | --- | --- | --- | --- | --- | --- | --- | --- | --- | --- | --- |
| C[C@@H](O/N=C/c1cc(-n2c(=O)cc(C(F)(F)F)n(C)c2=O)c(F)cc1Cl)C(=O)OCC1CCCO1 (stereo partly drawn) [264(R)] | 5 (Level 5: growth control rate is above 85%) | 5 (Level 5: growth control rate is above 85%) | 5 (Level 5: growth control rate is above 85%) | 5 (Level 5: growth control rate is above 85%) | 5 (Level 5: growth control rate is above 85%) | 5 (Level 5: growth control rate is above 85%) | 5 (Level 5: growth control rate is above 85%) | 0 (Level 0: growth control rate is less than 5%) | 0 (Level 0: growth control rate is less than 5%) | 0 (Level 0: growth control rate is less than 5%) | 0 (Level 0: growth control rate is less than 5%) | 5 (Level 5: growth control rate is above 85%) | 5 (Level 5: growth control rate is above 85%) | 5 (Level 5: growth control rate is above 85%) | 5 (Level 5: growth control rate is above 85%) | 5 (Level 5: growth control rate is above 85%) |
| C[C@@H](O/N=C/c1cc(-n2c(=O)cc(C(F)(F)F)n(C)c2=O)c(F)cc1Cl)C(=O)OCc1ccccc1 [283(R)] | 5 (Level 5: growth control rate is above 85%) | 5 (Level 5: growth control rate is above 85%) | 5 (Level 5: growth control rate is above 85%) | 5 (Level 5: growth control rate is above 85%) | 5 (Level 5: growth control rate is above 85%) | 5 (Level 5: growth control rate is above 85%) | 5 (Level 5: growth control rate is above 85%) | 0 (Level 0: growth control rate is less than 5%) | 0 (Level 0: growth control rate is less than 5%) | 0 (Level 0: growth control rate is less than 5%) | 0 (Level 0: growth control rate is less than 5%) | 5 (Level 5: growth control rate is above 85%) | 5 (Level 5: growth control rate is above 85%) | 5 (Level 5: growth control rate is above 85%) | 5 (Level 5: growth control rate is above 85%) | 5 (Level 5: growth control rate is above 85%) |
| C[C@@H](O/N=C/c1cc(-n2c(=O)cc(C(F)(F)F)n(C)c2=O)c(F)cc1Cl)C(=O)OCc1ccccn1 [301(R)] | 5 (Level 5: growth control rate is above 85%) | 5 (Level 5: growth control rate is above 85%) | 5 (Level 5: growth control rate is above 85%) | 5 (Level 5: growth control rate is above 85%) | 5 (Level 5: growth control rate is above 85%) | 5 (Level 5: growth control rate is above 85%) | 5 (Level 5: growth control rate is above 85%) | 0 (Level 0: growth control rate is less than 5%) | 0 (Level 0: growth control rate is less than 5%) | 0 (Level 0: growth control rate is less than 5%) | 0 (Level 0: growth control rate is less than 5%) | 5 (Level 5: growth control rate is above 85%) | 5 (Level 5: growth control rate is above 85%) | 5 (Level 5: growth control rate is above 85%) | 5 (Level 5: growth control rate is above 85%) | 5 (Level 5: growth control rate is above 85%) |
| CC[C@@H](O/N=C/c1cc(-n2c(=O)cc(C(F)(F)F)n(C)c2=O)c(F)cc1Cl)C(=O)OC [315(R)] | 5 (Level 5: growth control rate is above 85%) | 5 (Level 5: growth control rate is above 85%) | 5 (Level 5: growth control rate is above 85%) | 5 (Level 5: growth control rate is above 85%) | 5 (Level 5: growth control rate is above 85%) | 5 (Level 5: growth control rate is above 85%) | 5 (Level 5: growth control rate is above 85%) | 0 (Level 0: growth control rate is less than 5%) | 0 (Level 0: growth control rate is less than 5%) | 0 (Level 0: growth control rate is less than 5%) | 0 (Level 0: growth control rate is less than 5%) | 5 (Level 5: growth control rate is above 85%) | 5 (Level 5: growth control rate is above 85%) | 5 (Level 5: growth control rate is above 85%) | 5 (Level 5: growth control rate is above 85%) | 5 (Level 5: growth control rate is above 85%) |
| COC[C@@H](O/N=C/c1cc(-n2c(=O)cc(C(F)(F)F)n(C)c2=O)c(F)cc1Cl)C(=O)OC [333(R)] | 5 (Level 5: growth control rate is above 85%) | 5 (Level 5: growth control rate is above 85%) | 5 (Level 5: growth control rate is above 85%) | 5 (Level 5: growth control rate is above 85%) | 5 (Level 5: growth control rate is above 85%) | 5 (Level 5: growth control rate is above 85%) | 5 (Level 5: growth control rate is above 85%) | 0 (Level 0: growth control rate is less than 5%) | 0 (Level 0: growth control rate is less than 5%) | 0 (Level 0: growth control rate is less than 5%) | 0 (Level 0: growth control rate is less than 5%) | 5 (Level 5: growth control rate is above 85%) | 5 (Level 5: growth control rate is above 85%) | 5 (Level 5: growth control rate is above 85%) | 5 (Level 5: growth control rate is above 85%) | 5 (Level 5: growth control rate is above 85%) |
| COC(=O)[C@@H](C)O/N=C/c1cc(-n2c(=S)cc(C(F)(F)F)n(C)c2=O)c(F)cc1Cl [349(R)] | 5 (Level 5: growth control rate is above 85%) | 5 (Level 5: growth control rate is above 85%) | 5 (Level 5: growth control rate is above 85%) | 5 (Level 5: growth control rate is above 85%) | 5 (Level 5: growth control rate is above 85%) | 5 (Level 5: growth control rate is above 85%) | 5 (Level 5: growth control rate is above 85%) | 0 (Level 0: growth control rate is less than 5%) | 0 (Level 0: growth control rate is less than 5%) | 0 (Level 0: growth control rate is less than 5%) | 0 (Level 0: growth control rate is less than 5%) | 5 (Level 5: growth control rate is above 85%) | 5 (Level 5: growth control rate is above 85%) | 5 (Level 5: growth control rate is above 85%) | 5 (Level 5: growth control rate is above 85%) | 5 (Level 5: growth control rate is above 85%) |
